Results from ChEMBL document CHEMBL1201862, “PubChem BioAssay data set” (2004).
The source made the active and inactive calls.

Experiments:
[1] = molecular target: T1, Histone-lysine N-methyltransferase NSD2 (Homo sapiens, UniProt O96028); format: biochemical
T1 sequence (O96028 whole entry): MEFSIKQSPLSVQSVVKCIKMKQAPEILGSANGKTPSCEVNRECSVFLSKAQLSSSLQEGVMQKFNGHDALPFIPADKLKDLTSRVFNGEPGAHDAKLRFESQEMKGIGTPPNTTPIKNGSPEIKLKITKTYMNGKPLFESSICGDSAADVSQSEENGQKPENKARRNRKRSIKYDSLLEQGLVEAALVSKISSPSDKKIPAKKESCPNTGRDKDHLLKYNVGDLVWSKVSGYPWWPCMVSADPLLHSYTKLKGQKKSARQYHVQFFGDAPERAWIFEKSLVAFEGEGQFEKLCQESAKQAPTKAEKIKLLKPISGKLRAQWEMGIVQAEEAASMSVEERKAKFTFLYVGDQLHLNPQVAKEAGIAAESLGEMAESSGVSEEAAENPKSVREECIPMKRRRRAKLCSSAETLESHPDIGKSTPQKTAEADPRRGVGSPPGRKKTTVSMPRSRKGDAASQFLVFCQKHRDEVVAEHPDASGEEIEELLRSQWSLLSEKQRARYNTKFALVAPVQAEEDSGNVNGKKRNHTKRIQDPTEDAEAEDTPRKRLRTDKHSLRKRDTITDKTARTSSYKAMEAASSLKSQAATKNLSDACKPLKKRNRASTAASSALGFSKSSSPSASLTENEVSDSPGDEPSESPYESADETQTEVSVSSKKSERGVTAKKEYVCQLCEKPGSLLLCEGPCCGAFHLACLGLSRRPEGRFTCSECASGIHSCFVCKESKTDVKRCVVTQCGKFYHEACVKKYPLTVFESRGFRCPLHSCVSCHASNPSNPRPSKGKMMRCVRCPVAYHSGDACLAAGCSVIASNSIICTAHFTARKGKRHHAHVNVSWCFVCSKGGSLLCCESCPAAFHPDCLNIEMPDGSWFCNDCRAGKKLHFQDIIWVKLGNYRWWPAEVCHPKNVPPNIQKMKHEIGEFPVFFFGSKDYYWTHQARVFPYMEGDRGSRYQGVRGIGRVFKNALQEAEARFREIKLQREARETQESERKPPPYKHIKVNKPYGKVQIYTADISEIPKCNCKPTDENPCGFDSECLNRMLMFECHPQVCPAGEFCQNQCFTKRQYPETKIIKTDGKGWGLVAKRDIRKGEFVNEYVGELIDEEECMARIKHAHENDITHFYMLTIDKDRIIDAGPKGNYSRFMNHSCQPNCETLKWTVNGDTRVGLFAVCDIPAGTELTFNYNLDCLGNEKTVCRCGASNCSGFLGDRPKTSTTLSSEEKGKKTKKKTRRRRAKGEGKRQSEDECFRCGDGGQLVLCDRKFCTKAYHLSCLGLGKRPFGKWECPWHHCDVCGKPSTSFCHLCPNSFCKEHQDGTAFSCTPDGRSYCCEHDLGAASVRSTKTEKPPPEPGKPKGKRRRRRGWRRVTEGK

[2] = molecular target: T2, Probable nicotinate-nucleotide adenylyltransferase (Staphylococcus aureus (strain N315), UniProt P65502); format: functional, Staphylococcus aureus subsp. aureus N315; conditions: read-out: IC50_Mean;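 for IC50 Mean: confirmatory dose-response retesting of NadD inhibitor hits first found in an ultra-high-throughput screen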
T2 sequence (P65502 whole entry): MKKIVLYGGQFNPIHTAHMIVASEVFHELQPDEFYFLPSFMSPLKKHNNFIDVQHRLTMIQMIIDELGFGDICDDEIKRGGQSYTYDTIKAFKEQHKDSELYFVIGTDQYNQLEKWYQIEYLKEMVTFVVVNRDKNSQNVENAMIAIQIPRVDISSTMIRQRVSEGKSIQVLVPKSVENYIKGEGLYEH

[3] = molecular target: T2, Probable nicotinate-nucleotide adenylyltransferase; format: functional, Staphylococcus aureus subsp. aureus N315
[4] = molecular target: T3, Trace amine-associated receptor 1 (Homo sapiens, UniProt Q96RJ0); assay: Counterscreen for agonists of the human trace amine associated receptor 1 (hTAAR1): Fluorescence-based cell-based high throughput dose response assay to identify hTAAR1 agonist that also desensitize TAAR1 receptor response.; format: functional
T3 sequence (Q96RJ0 whole entry): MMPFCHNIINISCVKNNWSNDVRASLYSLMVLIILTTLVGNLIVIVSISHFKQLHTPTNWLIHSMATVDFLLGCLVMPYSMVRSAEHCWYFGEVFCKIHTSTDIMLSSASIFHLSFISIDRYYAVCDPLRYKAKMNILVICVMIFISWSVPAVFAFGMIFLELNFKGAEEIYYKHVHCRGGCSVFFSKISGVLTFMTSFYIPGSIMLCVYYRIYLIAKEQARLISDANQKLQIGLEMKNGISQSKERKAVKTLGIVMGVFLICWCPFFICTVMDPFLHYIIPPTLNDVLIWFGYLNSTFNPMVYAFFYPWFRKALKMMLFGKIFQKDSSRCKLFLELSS

[5] = molecular target: T3, Trace amine-associated receptor 1; assay: Fluorescence-based cell-based high throughput dose response assay to identify agonists of the human trace amine associated receptor 1 (TAAR1).; format: functional
cells [6] = format: functional, cell-based
cells [7] = format: functional, cell-based; remark: listed apart in the source
INS1 = assay: INS-1E survival protection against cytokine death – cell-based, luminescence, retest, dose response (AID 449756); format: functional; conditions: Rattus norvegicus;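 note: cell death triggered by IL-1 beta plus TNF-alpha plus IFN-gamma mixture; protective hits raise ATP signal compared with cytokine alone wells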
[8] = blockade of melanocortin 4 receptor signaling – cell-based, plate reader, cherry pick, counter-screen for LGR2 antagonist project, dose response (AID 743444); format: functional;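 note: transfected HEK 293 cells stimulated with alpha-MSH peptide; potency of inhibitors of the alpha-MSH evoked signal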
[9] = toxicity toward HepG2 liver cells – cell-based, plate reader, cherry-pick, antagonist series, cytotoxicity control, dose response (AID 743416); format: functional
[10] = A549 cell cytotoxicity, dose response, cytotoxicity control, plate reader, cherry-pick, antagonist series (AID 743412); format: functional, cell-based
[11] = molecular target: T4, DNA repair and recombination protein RAD54-like (Homo sapiens, UniProt Q92698); assay: RAD54 Holliday junction migration blockers – biochemical, fluorescence, cherry-picked samples, dose series, confirmation (AID 651657); format: functional
T4 sequence (Q92698 whole entry): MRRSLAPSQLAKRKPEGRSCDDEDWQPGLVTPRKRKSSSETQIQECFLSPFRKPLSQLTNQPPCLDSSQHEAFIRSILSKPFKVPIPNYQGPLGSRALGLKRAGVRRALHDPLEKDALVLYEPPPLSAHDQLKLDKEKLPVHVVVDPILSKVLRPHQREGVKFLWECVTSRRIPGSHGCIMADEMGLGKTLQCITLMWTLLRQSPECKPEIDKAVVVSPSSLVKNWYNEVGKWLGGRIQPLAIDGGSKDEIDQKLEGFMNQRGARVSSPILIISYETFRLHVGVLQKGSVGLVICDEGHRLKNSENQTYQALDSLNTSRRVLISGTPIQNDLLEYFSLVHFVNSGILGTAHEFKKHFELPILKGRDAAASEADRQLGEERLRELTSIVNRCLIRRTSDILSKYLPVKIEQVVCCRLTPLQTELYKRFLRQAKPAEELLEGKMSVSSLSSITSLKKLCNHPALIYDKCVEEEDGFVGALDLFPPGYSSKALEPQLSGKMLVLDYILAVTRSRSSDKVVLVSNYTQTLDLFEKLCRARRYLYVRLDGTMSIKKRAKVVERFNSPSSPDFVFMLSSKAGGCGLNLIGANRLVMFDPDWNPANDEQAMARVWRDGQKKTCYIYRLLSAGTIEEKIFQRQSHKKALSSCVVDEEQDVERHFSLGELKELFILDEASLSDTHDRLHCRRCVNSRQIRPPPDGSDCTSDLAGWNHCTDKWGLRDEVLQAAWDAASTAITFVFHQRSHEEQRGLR

[12] = viability loss in HEK293 cells – cell-based, plate reader, cherry-picked samples, cytotoxicity control, dose response (AID 743446); format: functional
[13] = viability loss in HepG2 hepatoma cells – cell-based, ATP luminescence, cherry-pick, activator set 2, cytotoxicity control, dose response (AID 1053143); format: functional
[14] = blockers of bursicon-stimulated LGR2 cAMP reporter – cell-based, HEK293, CRE-luciferase reporter, cherry pick, set 2, dose response (AID 743343); format: functional;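 note: transfected cells were stimulated with diluted bursicon conditioned medium after compound addition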
[15] = molecular target: Heat shock protein HSP 90-alpha (Homo sapiens, UniProt P07900); format: functional, organism-based

For `Oc1ccccc1CNc1cccc2cccnc12`, the AC50 [1] was 14.4 µM (active).

With `Cc1ccc(-c2cc(-c3ccccc3Cl)c(C#N)c(N)n2)o1` the IC50 [2] was 7.76 µM (active) and the IC50 [3] was 5.05 µM (active).

In the case of `O=C(N[C@@H](Cc1cccnc1)C(=O)N1CCC[C@H]1C(=O)NCCc1ccccc1Cl)C1CC1`, the IC50 [4] is reported as 13.6 µM (inactive), the EC50 [5] is reported as > 9.98 µM (active) and the EC50 (cells [6]) is reported as > 29.9 µM (inactive). For the same compound, the IC50 (cells [7]) was > 29.9 µM (inactive).

With `CC(=O)Nc1sc2c(c1-c1nc3ccccc3s1)CN(C(C)C)CC2` the AC50 (INS1) was 0.752 µM (active), the AC50 [8] was 23.2 µM (active) and the AC50 [9] was 3.52 µM (active). The AC50 [10] was 2.35 µM (active), the AC50 [11] was 0.715 µM (active) and the AC50 [12] was 25.7 µM (active). For the same compound, the AC50 [13] was 12.5 µM (active) and the AC50 [14] was 27.7 µM (active).

For `CC1=NOC(=O)/C1=C\c1ccc(-c2ccc(Br)cc2)o1`, the AC50 [15] was 4.12 µM (active) and the AC50 [1] was > 20 µM (inactive).
